Assay results reported in ChEMBL document CHEMBL6115030, “Systematic All-Hydrocarbon Stapling Analysis for Cecropin A Generates a Potent and Stable Antimicrobial Peptide” (J Med Chem, 2025).
≈ marks a conversion by molar mass, not a printed value. Bridge positions count the residues as written; N and C are the ends. Square brackets hold non-standard residues; d marks the D form. Peptide text beside a SMILES is read from it. S5 = C=CCCC[C@](C)(N)C(=O)O

Key:
Format in all cases: functional
[1] = tested on: Staphylococcus aureus; assay: Antibacterial activity against Staphylococcus aureus ATCC 25923 assessed as inhibition of bacterial growth measured after 24 hrs by broth microdilution method
[2] = tested on: Pseudomonas aeruginosa; assay: Antibacterial activity against Pseudomonas aeruginosa PAO1 assessed as inhibition of bacterial growth measured after 24 hrs by broth microdilution method
[3] = tested on: Klebsiella pneumoniae; assay: Antibacterial activity against Klebsiella pneumoniae ATCC 13883 assessed as inhibition of bacterial growth measured after 24 hrs by broth microdilution method

MIC [1] [µM] | MIC [2] [µM] | MIC [3] [µM] | Structure (SMILES)
12.5 (≈ 50.3 µg/mL) | 100 (≈ 403 µg/mL) | 6.25 (≈ 25.2 µg/mL) | CC[C@H](C)[C@@H]1NC(=O)CNC(=O)[C@H](CC(=O)O)NC(=O)[C@@](C)(NC(=O)[C@@H](NC(=O)[C@H](CC(N)=O)NC(=O)[C@H](CCC(N)=O)NC(=O)CNC(=O)[C@@H](NC(=O)[C@H](CCCCN)NC(=O)[C@H](CCC(=O)O)NC(=O)[C@@H](NC(=O)[C@H](CCCCN)NC(=O)[C@H](CCCCN)NC(=O)[C@H](Cc2ccccc2)NC(=O)[C@H](CC(C)C)NC(=O)[C@H](CCCCN)NC(=O)[C@H](Cc2c[nH]c3ccccc23)NC(=O)[C@H](CCCCN)NC(C)=O)[C@@H](C)CC)C(C)C)[C@@H](C)CC)CCC/C=C\CCC[C@@](C)(C(=O)N[C@@H](CCCCN)C(=O)N[C@@H](C)C(=O)NCC(=O)N2CCC[C@H]2C(=O)N[C@@H](C)C(=O)N[C@H](C(=O)N[C@@H](C)C(=O)N[C@H](C(=O)N[C@H](C(=O)NCC(=O)N[C@@H](CCC(N)=O)C(=O)N[C@@H](C)C(=O)N[C@H](C(=O)N[C@@H](CCC(N)=O)C(=O)N[C@H](C(=O)N[C@@H](C)C(=O)N[C@@H](CCCCN)C(N)=O)[C@@H](C)CC)[C@@H](C)O)C(C)C)C(C)C)C(C)C)NC1=O (Ac-KWKLFKKIEKVGQNI[S5]DGI[S5]KAGPAVAVVGQATQIAK-NH2; staple (Z) 16-20)
50 (≈ 203 µg/mL) | 100 (≈ 405 µg/mL) | 6.25 (≈ 25.3 µg/mL) | CC[C@H](C)[C@H](NC(=O)CNC(=O)[C@]1(C)CCC/C=C\CCC[C@](C)(NC(=O)CNC(=O)[C@@H](NC(=O)[C@H](CCCCN)NC(=O)[C@H](CCC(=O)O)NC(=O)[C@@H](NC(=O)[C@H](CCCCN)NC(=O)[C@H](CCCCN)NC(=O)[C@H](Cc2ccccc2)NC(=O)[C@H](CC(C)C)NC(=O)[C@H](CCCCN)NC(=O)[C@H](Cc2c[nH]c3ccccc23)NC(=O)[C@H](CCCCN)NC(C)=O)[C@@H](C)CC)C(C)C)C(=O)N[C@@H](CC(N)=O)C(=O)N[C@@H]([C@@H](C)CC)C(=O)N[C@@H](CCCNC(=N)N)C(=O)N1)C(=O)N[C@H](C(=O)N[C@@H](CCCCN)C(=O)N[C@@H](C)C(=O)NCC(=O)N1CCC[C@H]1C(=O)N[C@@H](C)C(=O)N[C@H](C(=O)N[C@@H](C)C(=O)N[C@H](C(=O)N[C@H](C(=O)NCC(=O)N[C@@H](CCC(N)=O)C(=O)N[C@@H](C)C(=O)N[C@H](C(=O)N[C@@H](CCC(N)=O)C(=O)N[C@H](C(=O)N[C@@H](C)C(=O)N[C@@H](CCCCN)C(N)=O)[C@@H](C)CC)[C@@H](C)O)C(C)C)C(C)C)C(C)C)[C@@H](C)CC (Ac-KWKLFKKIEKVG[S5]NIR[S5]GIIKAGPAVAVVGQATQIAK-NH2; staple (Z) 13-17)
> 100 | > 100 | > 100 | CC[C@H](C)[C@H](NC(=O)CNC(=O)[C@H](CC(=O)O)NC(=O)[C@H](CCCNC(=N)N)NC(=O)[C@@H](NC(=O)[C@H](CC(N)=O)NC(=O)[C@H](CCC(N)=O)NC(=O)CNC(=O)[C@@H](NC(=O)[C@H](CCCCN)NC(=O)[C@H](CCC(=O)O)NC(=O)[C@@H](NC(=O)[C@H](CCCCN)NC(=O)[C@]1(C)CCC/C=C\CCC[C@](C)(NC(=O)[C@H](CCCCN)NC(C)=O)C(=O)N[C@@H](CCCCN)C(=O)N[C@@H](CC(C)C)C(=O)N[C@@H](Cc2ccccc2)C(=O)N1)[C@@H](C)CC)C(C)C)[C@@H](C)CC)C(=O)N[C@H](C(=O)N[C@@H](CCCCN)C(=O)N[C@@H](C)C(=O)NCC(=O)N1CCC[C@H]1C(=O)N[C@@H](C)C(=O)N[C@H](C(=O)N[C@@H](C)C(=O)N[C@H](C(=O)N[C@H](C(=O)NCC(=O)N[C@@H](CCC(N)=O)C(=O)N[C@@H](C)C(=O)N[C@H](C(=O)N[C@@H](CCC(N)=O)C(=O)N[C@H](C(=O)N[C@@H](C)C(=O)N[C@@H](CCCCN)C(N)=O)[C@@H](C)CC)[C@@H](C)O)C(C)C)C(C)C)C(C)C)[C@@H](C)CC (Ac-K[S5]KLF[S5]KIEKVGQNIRDGIIKAGPAVAVVGQATQIAK-NH2; staple (Z) 2-6)
